The values below come from patent US4341790A, “Pyrrolidinylalkylcarboxylic acid amide derivatives, their preparation and pharmaceutical compositions containing them” (A. Nattermann & Cie. GmbH, priority 1979, dated 1982).

Structures are written as SMILES. “Also recorded” adds a separate entry of the source. Read-outs that look alike come from different tables or passages of the source.

One series has as its system male mice. Format: in vivo. From the text: (§1) 2. Prolongation of the cerebral survival time in the case of hypoxaemia caused by sub-atmospheric pressure.
(§2) This neuropathological behaviour is induced in male mice by a progressive reduction of the pressure to 26.66 kPa in an observation chamber and is used as an indicator of the cerebral hypoxia period. It ends in the death of the experimental animal.

Series [1] is described as follows: LD50 / toxicity and toleration. Format: in vivo, mice. To be noted: mouse, in vivo, mice.
Another series relates to mice. Briefly: LD50 / toxicity and toleration. The series is classed as in vivo. To be noted: in words.
The nature of series [2]: Cerebral protection / vaso-active and metabolism-regulating properties (overall). The series is classed as in vivo, mice. To be noted: in words. How it is done: The following methods have been used to investigate the pharmacodynamic properties of the compounds according to the invention:
1. Prolongation of cerebral survival time under hypoxaemia caused by NaNO2.
Starting from the results of Gibson and Blass (J. Neurochemistry 27, 1976), a cerebral hypoxia is produced in male mice by means of NaNO2 (225 mg/kg, subcutaneous). The cerebral hypoxia period is marked by a characteristic spasmodic behaviour and ends in the death of the experimental animals.
as §1, §2
3. Protection against amnesia induced by electric shock.
Starting from the results of Taber and Banuazizi (Psychopharmakologia 9, 1966), male mice are taught not to enter a certain compartment of the cage in order to avoid an electric shock. The response is extinguished by means of an electric shock administered via head electrodes (electric shock amnesia).

The test system of another series is thrombocytes. Put plainly: Inhibition of aggregation of thrombocytes. Conditions: in words.
Series [3] in a line: Tranquillising properties. Format: in vivo. Conditions: in words.

In the case of `C(=C\c1ccccc1)/CN1CCN(C(c2ccccc2)c2ccccc2)CC1` [Cinnarizine, cinnarizine], the Sub-atmospheric pressure hypoxaemia entry in the series on male mice (po) is listed as “-”.

For `CN(C)CCOC(=O)COc1ccc(Cl)cc1` [Meclofenoxate, meclofenoxate], the Sub-atmospheric pressure hypoxaemia result in the series with male mice (po) was “-”.

In the case of `Cc1cccc(C)c1NC(=O)CN1CCCC1=O` [Example 6, 2-Oxo-1-pyrrolidinylacetic acid, 2,6-dimethylanilide], the Sub-atmospheric pressure hypoxaemia entry with male mice (po) is given as “+”. In addition, the LD50 in series [1] (iv, administered intravenously) worked out at 421 mg/kg; in series [1] (po, administered orally), 1770 mg/kg. Further, in the series with mice, the toleration entry is recorded as “well tolerated; also recorded: good toleration”. Also, in the series with mice, the toxicity entry is “very low toxicity”. Also, the “activity / effectiveness (vaso-active, metabolism-regulating, cerebral protection)” value is “highly active; also recorded: excellent activity” in series [2] and “particularly effective” in series [2] (listed as 2-Oxo-1-pyrrolidinylacetic acid-2,6-dimethylanilide). In addition, the “effect of inhibiting aggregation of thrombocytes” value in the series with thrombocytes is recorded as “inhibiting aggregation of thrombocytes”. Moreover, the tranquillising properties entry in series [3] is given as “good tranquillising properties”.

With `CC[C@]12CCCN3CCc4c(n(c5ccccc45)[C@@](O)(C(=O)OC)C1)[C@@H]32` [Vincamine, vincamine], the Sub-atmospheric pressure hypoxaemia entry in the series on male mice (po) is “+”.

On to `CC(C)NCC(O)COc1cccc2ccccc12` (stereo not drawn) [Propranol, propranolol], for which the Sub-atmospheric pressure hypoxaemia result in the series on male mice (po) is given as “-”.

For `NC(=O)CN1CCCC1=O` [Piracetam, piracetam], the Sub-atmospheric pressure hypoxaemia result in the series with male mice (po) was “+”.

On to `Cc1ncc(CSSCc2cnc(C)c(O)c2CO)c(CO)c1O` [Pyritinol, pyritinol], for which, in the series with male mice (po), the Sub-atmospheric pressure hypoxaemia entry is “-”.

Turning to `COc1ccc(Cc2nccc3cc(OC)c(OC)cc23)cc1OC` [Papaverine, papaverine], the Sub-atmospheric pressure hypoxaemia result in the series with male mice (iv) is “-”.

For `O=C(CN1CCCC1=O)Nc1ccccc1` [PA, 2-oxo-1-pyrrolidinylacetic acid anilide, reference compound], the Sub-atmospheric pressure hypoxaemia result in the series with male mice (po) was “-”. For the same compound, in series [2], the “activity / effectiveness (vaso-active, metabolism-regulating, cerebral protection)” value was “exhibits none of these effects”.
